Assay results as given in PMC10629583, “Specific inhibition of an anticancer target, polo-like kinase 1, by allosterically dismantling its mechanism of substrate recognition” (Proceedings of the National Academy of Sciences of the …, 2023).
“Also recorded” adds a separate entry of the source. [ ]: non-standard residue; d: D form. The star is where a group is joined. FITC = O=C1OC2(c3ccc(O)cc3Oc3cc(O)ccc32)c2ccc(NC(=S)*)cc21; pT = C[C@@H](OP(=O)(O)O)[C@H](N)C(=O)O; Ahx = NCCCCCC(=O)O

Assays:
full-length Plk1 = target: T1, full-length Plk1 (Homo sapiens, UniProt P53350); experiment: ELISA-based PBD1-binding inhibition assay; settings: total lysates from HEK293A cells expressing full-length Plk1; biotinylated PBIP1 p-T78 peptide; read-out: Anti-Plk1 (full length) ELISA (IC50) Mean ± SEM
T1 construct: expressed in transfected cells; host or cells: HEK293A cells infected with adenovirus; total lysate

L363 cells = experiment: MTS cell viability assay, L363 cells; assay type: cell-based; settings: 48 h treatment
Plk1 PBD (PBD1) = target: T2, Plk1 PBD (PBD1) (Homo sapiens, UniProt P53350); experiment: FP-based inhibition assay, PBD1; assay type: binding; settings: FP, bacterially expressed purified PBD, FITC-ligand 15 nM, PBD at EC85; read-out: PBD1 IC50 ± SD
T2 construct: constructs expressing PBD1 (residues 345–603) WT (pKM7650); His; TEV site (N); made in house; host or cells: bacteria (E. coli)
Protocol: (§1) FP assays were carried out essentially as described previously ([35], [36]). […] All the samples were analyzed approximately 30 min after reaction in a 384-well format using the SpectraMax Paradigm multimode microplate detection platform (Molecular Devices). Data were analyzed after carrying out at least three independent experiments using GraphPad Prism software version 8.

Plk2 PBD (PBD2) = target: T3, Plk2 PBD (PBD2) (Homo sapiens, UniProt Q9NYY3); experiment: FP-based inhibition assay, PBD2; assay type: binding; settings: bacterially expressed purified PBD, FITC-ligand 15 nM, PBD at EC85
T3 construct: Purification of PBD2-His (355–685) (pKM3358) and its S652F mutant (pKM7980); His (C); made in house; host or cells: bacteria (E. coli)
T3 sequence (Q9NYY3 355-685): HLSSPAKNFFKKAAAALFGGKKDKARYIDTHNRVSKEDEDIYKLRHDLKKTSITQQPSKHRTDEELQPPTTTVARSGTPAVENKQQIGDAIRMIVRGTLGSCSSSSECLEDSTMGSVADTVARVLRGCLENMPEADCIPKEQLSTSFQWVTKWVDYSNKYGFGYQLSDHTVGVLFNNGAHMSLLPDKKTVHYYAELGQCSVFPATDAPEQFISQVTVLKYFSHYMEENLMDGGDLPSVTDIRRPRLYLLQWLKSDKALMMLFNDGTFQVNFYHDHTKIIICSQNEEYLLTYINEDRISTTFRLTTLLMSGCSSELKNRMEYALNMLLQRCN
Protocol: as §1

Plk3 PBD (PBD3) = target: T4, Plk3 PBD (PBD3) (Homo sapiens, UniProt Q9H4B4); experiment: FP-based inhibition assay, PBD3; assay type: binding; settings: bacterially expressed purified PBD, FITC-ligand 15 nM, PBD at EC85
T4 construct: MBP-PBD3-His (335–646) (pKM3359) and its A612F (pKM7981); His (C); made in house; host or cells: bacteria (E. coli)
T4 sequence (Q9H4B4 335-646): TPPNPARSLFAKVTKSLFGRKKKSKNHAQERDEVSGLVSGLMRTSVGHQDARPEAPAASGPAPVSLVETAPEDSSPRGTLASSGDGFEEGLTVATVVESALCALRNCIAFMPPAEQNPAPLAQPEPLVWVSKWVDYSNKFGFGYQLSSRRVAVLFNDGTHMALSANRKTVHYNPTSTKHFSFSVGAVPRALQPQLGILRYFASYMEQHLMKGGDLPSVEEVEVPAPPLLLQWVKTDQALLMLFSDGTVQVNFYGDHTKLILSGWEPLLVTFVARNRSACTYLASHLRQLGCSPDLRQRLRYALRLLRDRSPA
Protocol: (§2) FP assays were carried out essentially as described previously ([35], [36]). FITC-conjugated ligands (15 nM) were mixed with PBDs at their EC85 concentrations. All the samples were analyzed approximately 30 min after reaction in a 384-well format using the SpectraMax Paradigm multimode microplate detection platform (Molecular Devices). Data were analyzed after carrying out at least three independent experiments using GraphPad Prism software version 8.

BZP Rat brain site = experiment: PDSP off-target binding screen; settings: read-out: Secondary screen Ki
Excerpt: (§3) PDSP no. Compound Interactions (Ki, µM)
(§4) 60477 Allopole-A None observed.
(§5) trigger a secondary screen at that receptor.

[1] = Conversion of prodrug 6 to active species 5 by GSH (HPLC); assay type: physicochemical; settings: room temperature, after 5 min
Protocol: To a solution of 6 (1.0 mg, 2.4 µmol) in 0.800 mL of MeOH-d4 was added a solution of glutathione (1.1 mg, 3.6 µmol) and sodium carbonate (0.76 mg, 7.2 µmol) in 0.200 mL of D2O. The reaction was stirred at room temperature and sampled at 5, 10, 20, and 60 min. Aliquots were flash-frozen on dry ice and always stored at −80 °C. HPLC and mass spectrometry were used to analyze the reaction mixtures.
HPLC analysis of both pure 6 (rt = 13.95 min) and 5 (rt = 11.16 min) using the method of acetonitrile 05 to 95% and 10 mM triethylammonium acetate 95 to 5% in 20 min gave standards to compare against the reaction mixture. The HPLC analysis of the reaction mixture, compared to standards, was performed using a Hewlett−Packard 1100 HPLC equipped with an Agilent Eclipse 5 µm XDB-C18 analytical column (50 mm × 4.6 mm; Agilent Technologies Inc.).

[2] = Solubility in PBS (imaging of insoluble particles, dynamic light scattering); assay type: physicochemical; settings: PBS buffer (pH 7.4)
Protocol: All samples were analyzed after adjusting the concentration to 100 μM solution in the PBS buffer (pH 7.4) containing 1% DMSO. The measurements were carried out at 25 °C using the DynaPro NanoStar system (Wyatt Technology). The intensity of the scattered light was measured as a function of time, and the resulting data were used to calculate the size and distribution of the particles in the sample. Collected data were analyzed using the DYNAMICS software to calculate the mean size and polydispersity index of the particles in the sample. At least three repeat measurements were performed to ensure that the results were accurate and reproducible.
Fig. S1. Solubility and activity of Allopole and its related compounds. (A) Images showing insoluble
particles of 200 µM of the indicated compounds dissolved in the PBS buffer. The aggregates of […]

[3] = test system: 45 receptors and channels; experiment: PDSP off-target screen (whole panel); assay type: binding, human
Excerpt: as §3, §4, §5

Flag-Plk1 K82M = experiment: Pulldown with biotinylated compound 22, Plk1; assay type: binding; settings: streptavidin agarose, anti-Flag immunoblot
Protocol: (§6) A mixture of total cell lysates expressing Flag-Plk1 K82M (pKL577), Flag-Plk2 K108M (pKL1416), or Flag-Plk3 K52R (pKM203) (a gift from Wei Dai, New York University School of Medicine, NY) was prepared in TBSN buffer and incubated with a biotinylated Allopole-A-derivative, 22, or biotin alone. The resulting samples were then subjected to pulldown analyses with streptavidin agarose bead (Thermo Fisher Scientific), after which they were separated by SDS-PAGE and immunoblotted with anti-Flag antibody.

Flag-Plk2 K108M = experiment: Pulldown with biotinylated compound 22, Plk2; assay type: binding; settings: streptavidin agarose, anti-Flag immunoblot
Protocol: as §6

Flag-Plk3 K52R = target: T5, Flag-Plk3 K52R (Homo sapiens, UniProt Q9H4B4, K91R); experiment: Pulldown with biotinylated compound 22, Plk3; assay type: binding; settings: streptavidin agarose, anti-Flag immunoblot
T5 construct: expressed in transfected cells; host or cells: HEK293 cells; mixed total lysates
Protocol: as §6

PBD1 F559D mutant = target: T6, PBD1 F559D mutant (Homo sapiens, UniProt P53350, F559D); experiment: FP-based binding/inhibition assay, PBD1 F559D; settings: FP binding, PBD1 F559D vs WT
T6 construct: constructs expressing PBD1 (residues 345–603) WT (pKM7650), F559D (pKM7878); His; TEV site (N); made in house; host or cells: bacteria (E. coli)
Protocol: as §2
(§7) Fig. S4. Generation of F559 mutants for in vitro and cell-based assays in Fig. 4. (A) SDS-PAGE showing the proteins used for the FP assays in Fig. 4 A and B. CBB, a Coomassie Brilliant Blue– stained gel. (B) Summary of Kd and EC85 values for PBD1 WT and mutants. The Kd values for PBD1 WT and mutants were determined after extrapolating them from the binding curves as the concentration at which 50% of the FITC-Ahx-DPPLHSpTAI-NH2 are PBD1-bound. The EC85 values indicate the effective concentration of 85% of the maximal concentration calculated for each protein. The FP values were obtained 30 minutes after incubation. For the F559K and F559R mutants, we were not able to determine the EC85 values and therefore used 2 µM of these proteins for the assays in Fig. 4B. N.D., not determined. […]

PBD1 F559E mutant = target: T7, PBD1 F559E mutant (Homo sapiens, UniProt P53350, F559E); experiment: FP-based binding/inhibition assay, PBD1 F559E; settings: FP binding, PBD1 F559E vs WT
T7 construct: constructs expressing PBD1 (residues 345–603) WT (pKM7650), F559D (pKM7878), F559E (pKM7879); His; TEV site (N); made in house; host or cells: bacteria (E. coli)
Protocol: as §2, §7

PBD1 F559K mutant = target: T8, PBD1 F559K mutant (Homo sapiens, UniProt P53350, F559K); experiment: FP-based binding/inhibition assay, PBD1 F559K; settings: FP binding, PBD1 F559K vs WT
T8 construct: constructs expressing PBD1 (residues 345–603) WT (pKM7650); His; TEV site (N); made in house; host or cells: bacteria (E. coli)
Protocol: as §2, §7

PBD1 F559R mutant = target: T9, PBD1 F559R mutant (Homo sapiens, UniProt P53350, F559R); experiment: FP-based binding/inhibition assay, PBD1 F559R; settings: FP binding, PBD1 F559R vs WT
T9 construct: constructs expressing PBD1 (residues 345–603) WT (pKM7650); His; TEV site (N); made in house; host or cells: bacteria (E. coli)
Protocol: as §2, §7

cultured cells = test system: cultured cells; set-up: method as in PMID 31685831; settings: cited from earlier work

T1 sequence (P53350 whole entry): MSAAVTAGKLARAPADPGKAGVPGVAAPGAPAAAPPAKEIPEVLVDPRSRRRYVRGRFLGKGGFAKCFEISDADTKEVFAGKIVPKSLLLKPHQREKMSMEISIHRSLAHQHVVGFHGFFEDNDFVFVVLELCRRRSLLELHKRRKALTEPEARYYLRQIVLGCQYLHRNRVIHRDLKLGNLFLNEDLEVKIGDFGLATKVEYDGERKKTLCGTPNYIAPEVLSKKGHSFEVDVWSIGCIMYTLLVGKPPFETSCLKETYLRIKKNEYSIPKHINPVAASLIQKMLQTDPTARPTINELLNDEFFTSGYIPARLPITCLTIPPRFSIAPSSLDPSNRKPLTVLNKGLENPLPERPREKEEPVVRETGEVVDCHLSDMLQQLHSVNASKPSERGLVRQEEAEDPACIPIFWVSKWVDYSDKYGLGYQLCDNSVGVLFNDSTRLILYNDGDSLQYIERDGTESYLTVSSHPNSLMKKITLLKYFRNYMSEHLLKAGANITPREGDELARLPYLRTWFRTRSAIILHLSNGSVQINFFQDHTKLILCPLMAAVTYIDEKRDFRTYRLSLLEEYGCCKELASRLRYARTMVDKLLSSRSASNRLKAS
T7 sequence (P53350 345-603 F559E): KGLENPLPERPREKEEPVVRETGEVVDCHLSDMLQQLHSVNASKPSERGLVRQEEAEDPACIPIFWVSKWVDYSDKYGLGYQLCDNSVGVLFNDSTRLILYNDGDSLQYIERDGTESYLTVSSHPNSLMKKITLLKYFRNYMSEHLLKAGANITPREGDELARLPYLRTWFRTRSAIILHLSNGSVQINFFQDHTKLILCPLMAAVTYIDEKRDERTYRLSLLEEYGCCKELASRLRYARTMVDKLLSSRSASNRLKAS
T8 sequence (P53350 345-603 F559K): as the sequence (P53350 345-603 F559E) above, with E215K counted along it
T6 sequence (P53350 345-603 F559D): as the sequence (P53350 345-603 F559E) above, with E215D counted along it
T5 sequence (Q9H4B4 40-646 K91R limits assumed): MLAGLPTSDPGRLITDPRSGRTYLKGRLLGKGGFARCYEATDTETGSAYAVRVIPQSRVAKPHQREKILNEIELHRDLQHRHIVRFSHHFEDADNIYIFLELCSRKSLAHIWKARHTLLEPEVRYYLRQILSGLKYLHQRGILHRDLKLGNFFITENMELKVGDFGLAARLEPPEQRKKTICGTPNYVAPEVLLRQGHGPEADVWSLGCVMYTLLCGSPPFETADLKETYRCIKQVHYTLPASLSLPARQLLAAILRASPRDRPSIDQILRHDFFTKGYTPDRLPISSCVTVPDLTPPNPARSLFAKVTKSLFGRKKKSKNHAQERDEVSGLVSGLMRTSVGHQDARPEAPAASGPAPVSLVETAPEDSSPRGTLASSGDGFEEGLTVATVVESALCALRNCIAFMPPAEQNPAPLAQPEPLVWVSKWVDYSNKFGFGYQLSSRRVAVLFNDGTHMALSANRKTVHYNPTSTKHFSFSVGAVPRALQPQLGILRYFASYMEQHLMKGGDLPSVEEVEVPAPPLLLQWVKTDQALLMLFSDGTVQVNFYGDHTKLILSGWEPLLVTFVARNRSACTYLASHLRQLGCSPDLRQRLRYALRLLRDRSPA
T2 sequence (P53350 345-603): as the sequence (P53350 345-603 F559E) above, with E215F counted along it
T9 sequence (P53350 345-603 F559R): as the sequence (P53350 345-603 F559E) above, with E215R counted along it

Q: Which IC50 (full-length Plk1) does the source give for `Cc1cc2c(s1)c(=O)n(CC1CC1)c1n[nH]c(=S)n21` [compound 5] here?
A: 1.66 ± 0.04 µM

Q: And the “Cell efficacy (GI50) Mean ± SD” value (L363 cells)?
A: N. S.

Q: And the IC50 (Plk1 PBD (PBD1))?
A: 0.0128 ± 0.0026 µM

Q: What about the “PBD2 IC50 ± SD” value (Plk2 PBD (PBD2)) of the same molecule?
A: N. S.

Q: What about the “PBD3 IC50 ± SD” value (Plk3 PBD (PBD3)) of the same molecule?
A: N. S.

Q: What about the Ki (BZP Rat brain site) of the same molecule?
A: 0.41 µM

Q: Which IC50 (full-length Plk1) does the source give for `Cc1cc2c(s1)c(=O)n(CC1CC1)c1nnc(Sc3c([N+](=O)[O-])ncn3C)n21` [compound 6] here?
A: > 50 µM

Q: And the GI50 (L363 cells; read-out: Cell efficacy (GI50) Mean ± SD)?
A: 3.13 ± 0.15 µM

Q: What about the “Conversion of prodrug to active species by GSH (in words)” value [1] of the same molecule?
A: complete conversion

Q: And the “Solubility (in words)” value [2]?
A: low solubility

Q: And the “Interactions (Ki, µM), summary of PDSP screen (in words)” value [3]?
A: None observed

Q: With `O=C(CCCCC1SCC2NC(=O)NC21)NCCOCCOCCOCCOCCC(=O)NCCCn1c(=O)c2cc(F)ccc2n2c(=S)[nH]nc12` (centres unmarked) [compound 22] as the molecule, how does the IC50 (full-length Plk1) read?
A: 9.32 ± 0.17 µM

Q: What about the “Pulldown of Plk1 from mixed total lysates (in words)” value (Flag-Plk1 K82M) of the same molecule?
A: precipitated the full-length Plk1; also recorded: specifically interacts with

Q: And the “Pulldown of Plk2 from mixed total lysates (in words)” value (Flag-Plk2 K108M)?
A: not Plk2 or Plk3

Q: And the “Pulldown of Plk3 from mixed total lysates (in words)” value (Flag-Plk3 K52R)?
A: not Plk2 or Plk3

Q: With “FITC-Ahx-DPPLHSpTAI-NH2 ({FITC-Ahx}-DPPLHS[pT]AI-NH2; SMILES CC[C@H](C)[C@H](NC(=O)[C@H](C)NC(=O)[C@@H](NC(=O)[C@H](CO)NC(=O)[C@H](Cc1c[nH]cn1)NC(=O)[C@H](CC(C)C)NC(=O)[C@@H]1CCCN1C(=O)[C@@H]1CCCN1C(=O)[C@H](CC(=O)O)NC(=O)CCCCCNC(=S)Nc1ccc2c(c1)C(=O)OC21c2ccc(O)cc2Oc2cc(O)ccc21)[C@@H](C)OP(=O)(O)O)C(N)=O) [FITC-conjugated phosphopeptide, FP probe, reference compound]” as the molecule, how does the “Decrease in affinity of the FITC-phosphopeptide compared to WT” value (from here on “Decrease in affinity”) (PBD1 F559D mutant) read?
A: 1.7 fold

Q: What about the “Decrease in affinity” value (PBD1 F559E mutant) of the same molecule?
A: approximately sevenfold decreased affinity

Q: What about the “Decrease in affinity” value (PBD1 F559K mutant) of the same molecule?
A: more than 27 fold

Q: And the “Decrease in affinity” value (PBD1 F559R mutant)?
A: > 42 fold

Q: With Polotyrin as the molecule, how does the GI50 (cultured cells) read?
A: a few hundred
